Laboratory results published in patent US9655904B2, “Substituted benzoazepines as toll-like receptor modulators” (VentiRx Pharmaceuticals, Inc., priority 2009, dated 2017).

Legend:
Type in all cases: cell-based
TLR8 [1] = biological target: T1, TLR8 (Homo sapiens, UniProt Q9NR97); test: MC50 values for TLR8 activity (test not specified; procedures of Gorden et al. and Zhu et al.)
T1 sequence (Q9NR97 27-1041): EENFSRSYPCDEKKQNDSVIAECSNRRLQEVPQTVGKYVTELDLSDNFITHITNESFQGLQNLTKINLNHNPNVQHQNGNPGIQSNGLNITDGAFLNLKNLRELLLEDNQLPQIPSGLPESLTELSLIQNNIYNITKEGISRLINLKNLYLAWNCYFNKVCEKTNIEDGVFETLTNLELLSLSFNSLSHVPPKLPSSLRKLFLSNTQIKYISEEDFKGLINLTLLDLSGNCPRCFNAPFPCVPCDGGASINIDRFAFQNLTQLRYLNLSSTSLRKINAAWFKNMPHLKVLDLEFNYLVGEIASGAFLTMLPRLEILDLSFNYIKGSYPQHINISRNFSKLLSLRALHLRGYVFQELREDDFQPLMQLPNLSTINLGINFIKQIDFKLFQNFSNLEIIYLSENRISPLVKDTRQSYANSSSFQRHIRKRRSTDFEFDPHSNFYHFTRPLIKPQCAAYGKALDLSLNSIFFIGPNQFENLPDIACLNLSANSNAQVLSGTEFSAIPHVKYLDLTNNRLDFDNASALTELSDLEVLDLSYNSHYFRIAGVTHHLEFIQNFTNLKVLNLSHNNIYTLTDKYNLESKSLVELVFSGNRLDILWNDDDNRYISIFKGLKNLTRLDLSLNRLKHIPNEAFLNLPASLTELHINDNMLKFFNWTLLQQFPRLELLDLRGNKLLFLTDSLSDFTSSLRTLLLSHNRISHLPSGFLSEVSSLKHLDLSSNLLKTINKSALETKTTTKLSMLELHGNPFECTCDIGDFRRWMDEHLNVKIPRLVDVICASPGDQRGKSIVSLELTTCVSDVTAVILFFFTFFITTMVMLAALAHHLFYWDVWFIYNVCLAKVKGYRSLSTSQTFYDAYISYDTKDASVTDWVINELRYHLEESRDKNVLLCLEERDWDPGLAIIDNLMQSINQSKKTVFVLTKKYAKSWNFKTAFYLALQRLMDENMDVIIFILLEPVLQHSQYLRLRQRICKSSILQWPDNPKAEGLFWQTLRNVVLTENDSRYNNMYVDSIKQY
Text: (§1) Activity of the compounds can be assessed according to procedures described in, e.g., Gorden et al., Journal of Immunology 177, pp. 8164-8170 (2006) and Zhu et al., Molecular Immunology, vol. 45 (11), pp. 3238-3242 (2008).
MC50 values for TLR8 activity are, for example, as shown below: […]

TLR8 [2] = biological target: T1, TLR8; test: PBMC assay for TLR8 (TNFα in supernatants by ELISA); design: Peripheral blood mononuclear cells (PBMCs) from human blood were isolated; endogenous in cells; host or cells: human PBMCs; settings: human PBMCs incubated with compound overnight, MC50 = concentration at which 50% of maximum induction is seen
Method: (§2) Peripheral blood mononuclear cells (PBMCs) from human blood were isolated using BD Vacutainer Cell Preparation Tubes with sodium citrate. Cells were incubated with compound overnight. TLR8 activity was assayed by measuring the amount of TNFα in supernatants by ELISA. TLR7 activity was assayed by measuring the amount of IFNα in supernatants by ELISA (R&D Systems). […] The results of this assay are shown below in Tables 2 and 3.
(§3) MC50 numbers are represented as factors of ten, for example, + indicates an MC50 value of X 10^4, or a value in the tens of thousands of nanomolar (nM range); ++ indicates an MC50 value of X 10^3, or a value in the thousands; +++ indicates an MC50 value of X 10^2, or a value in the hundreds; and ++++ indicates an MC50 value of X 10^1 or 10^0, or a value in the tens or ones.

TLR7 [3] = biological target: T2, TLR7 (Homo sapiens, UniProt Q9NYK1); test: PBMC assay for TLR7 (IFNα in supernatants by ELISA); design: Peripheral blood mononuclear cells (PBMCs) from human blood were isolated; endogenous in cells; host or cells: human PBMCs; settings: human PBMCs incubated with compound overnight, MC50 = concentration at which 50% of maximum induction is seen
T2 sequence (Q9NYK1 27-1049): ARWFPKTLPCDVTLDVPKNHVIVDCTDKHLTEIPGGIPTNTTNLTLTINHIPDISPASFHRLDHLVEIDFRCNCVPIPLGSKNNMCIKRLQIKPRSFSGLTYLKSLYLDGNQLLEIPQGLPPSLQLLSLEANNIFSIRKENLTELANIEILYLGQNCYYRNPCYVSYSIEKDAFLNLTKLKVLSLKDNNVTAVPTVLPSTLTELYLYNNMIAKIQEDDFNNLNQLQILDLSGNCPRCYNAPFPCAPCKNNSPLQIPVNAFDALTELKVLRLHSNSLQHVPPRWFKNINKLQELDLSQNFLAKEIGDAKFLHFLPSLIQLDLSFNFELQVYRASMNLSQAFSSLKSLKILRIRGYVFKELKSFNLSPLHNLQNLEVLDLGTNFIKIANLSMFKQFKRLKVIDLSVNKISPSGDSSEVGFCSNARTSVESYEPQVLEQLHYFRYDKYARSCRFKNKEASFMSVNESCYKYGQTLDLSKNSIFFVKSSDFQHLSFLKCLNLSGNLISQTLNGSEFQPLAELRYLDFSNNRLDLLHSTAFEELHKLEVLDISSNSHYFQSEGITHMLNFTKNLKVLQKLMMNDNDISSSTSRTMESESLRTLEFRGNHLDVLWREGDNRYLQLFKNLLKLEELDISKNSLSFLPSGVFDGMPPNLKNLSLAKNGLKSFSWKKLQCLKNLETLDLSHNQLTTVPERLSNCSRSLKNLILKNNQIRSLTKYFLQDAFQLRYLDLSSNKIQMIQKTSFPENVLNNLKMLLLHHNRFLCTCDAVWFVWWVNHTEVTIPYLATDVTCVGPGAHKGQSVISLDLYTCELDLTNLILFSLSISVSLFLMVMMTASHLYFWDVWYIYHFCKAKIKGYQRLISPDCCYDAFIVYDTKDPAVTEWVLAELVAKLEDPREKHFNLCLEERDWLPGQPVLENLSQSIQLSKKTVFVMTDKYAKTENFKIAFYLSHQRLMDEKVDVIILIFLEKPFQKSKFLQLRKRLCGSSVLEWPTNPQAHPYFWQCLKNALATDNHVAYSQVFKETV
Method: as §2, §3

TLR7 [4] = biological target: T2, TLR7; test: MC50 values for TLR7 activity (test not specified; procedures of Gorden et al. and Zhu et al.)
Text: as §1
MC50 values for TLR7 activity are, for example, as shown below: […]

| SMILES | EC50 (TLR8 [1]) | EC50 (TLR8 [2]) | EC50 (TLR7 [3]) | EC50 (TLR7 [4]) |
| --- | --- | --- | --- | --- |
| CCCN(CCC)C(=O)C1=Cc2ccc(-c3cncc(CO)c3)cc2N=C(N)C1 [Compound 183, (1E,4E)-2-amino-8-(5-(hydroxymethyl)pyridin-3-yl)-N,N-dipropyl-3H-benzo[b]azepine-4-carboxamide] | 8 nM | 1 to 100 nM | 1 to 10 µM | – |
| CCOC(=O)C1=Cc2ccc(-c3cncc(CO)c3)cc2N=C(N)C1 [Compound 199, (1E,4E)-ethyl 2-amino-8-(5-(hydroxymethyl)pyridin-3-yl)-3H-benzo[b]azepine-4-carboxylate] | – | 1 to 100 nM | 1 to 10 µM | – |
| CCCN(CCCO)C(=O)C1=Cc2ccc(-c3ccc(CC(=O)OC)cc3)cc2N=C(N)C1 [Compound 213, Methyl 2-(4-((1E,4E)-2-amino-4-((3-hydroxypropyl)(propyl)carbamoyl)-3H-benzo[b]azepin-8-yl)phenyl)acetate] | – | 100 to 1000 nM | 1 to 10 µM | – |
| CCCN(CCCO)C(=O)C1=Cc2ccc(-c3ccc(CC(=O)OCC)cc3)cc2N=C(N)C1 [Compound 214, Ethyl 2-(4-((1E,4E)-2-amino-4-((3-hydroxypropyl)(propyl)carbamoyl)-3H-benzo[b]azepin-8-yl)phenyl)acetate] | 54 nM | 1 to 100 nM | 1 to 10 µM | – |
| CCCN(CCCO)C(=O)C1=Cc2ccc(-c3ccc(CC(=O)OC(C)C)cc3)cc2N=C(N)C1 [Compound 215, Isopropyl 2-(4-((1E,4E)-2-amino-4-((3-hydroxypropyl)(propyl)carbamoyl)-3H-benzo[b]azepin-8-yl)phenyl)acetate] | – | 1 to 100 nM | 10 to 100 µM | – |
| CCCN(CCCO)C(=O)C1=Cc2ccc(-c3ccc(CC(=O)OCC(C)C)cc3)cc2N=C(N)C1 [Compound 216, Isobutyl 2-(4-((1E,4E)-2-amino-4-((3-hydroxypropyl)(propyl)carbamoyl)-3H-benzo[b]azepin-8-yl)phenyl)acetate] | – | 1 to 100 nM | 10 to 100 µM | – |
| CCCN(CCCO)C(=O)C1=Cc2ccc(-c3ccc(CCC(=O)OCC(C)C)cc3)cc2N=C(N)C1 [Compound 219, Isobutyl 3-(4-((1E,4E)-2-amino-4-((3-hydroxypropyl)(propyl)carbamoyl)-3H-benzo[b]azepin-8-yl)phenyl)propanoate] | – | 1000 to 10000 nM | 1 to 10 µM | – |
| CCCN(CCCO)C(=O)C1=Cc2ccc(-c3ccc4c(c3)C(=O)OC4)cc2N=C(N)C1 [Compound 222, (1E,4E)-2-Amino-N-(3-hydroxypropyl)-8-((3-oxo-1,3-dihydroisobenzofuran-5-yl)-N-propyl-3H-benzo[b]azepine-4-carboxamide] | 33 nM | 1 to 100 nM | 0.1 to 1 µM | 358 nM |
| CCCN(CCC)C(=O)C1=Cc2ccc(-c3ccc(C4CCOC4=O)cc3)cc2N=C(N)C1 (stereo not shown) [Compound 223, (1E,4E)-2-Amino-8-(4-(2-oxotetrahydrofuran-3-yl)phenyl)-N,N-dipropyl-3H-benzo[b]azepine-4-carboxamide] | 195 nM | 100 to 1000 nM | 1 to 10 µM | – |
| CCCN(CCC)C(=O)C1=Cc2ccc(-c3ccc(C(O)CO)cc3)cc2N=C(N)C1 (stereo not shown) [Compound 224, (1E,4E)-2-amino-8-(4-(1,2-dihydroxyethyl)phenyl)-N,N-dipropyl-3H-benzo[b]azepine-4-carboxamide] | 363 nM | 100 to 1000 nM | 10 to 100 µM | – |
| CCCN(CCC)C(=O)C1=Cc2ccc(-c3ccc(C4COC(=O)O4)cc3)cc2N=C(N)C1 (stereo not shown) [Compound 225, (1E,4E)-2-amino-8-(4-(2-oxo-1,3-dioxolan-4-yl)phenyl)-N,N-dipropyl-3H-benzo[b]azepine-4-carboxamide] | – | 100 to 1000 nM | 10 to 100 µM | – |
